Measurements as given in ChEMBL document CHEMBL1201862, “PubChem BioAssay data set” (2004).
Active and inactive are the calls of the source.

Experiments:
[1] = biological target: T1, Corticotropin-releasing factor receptor 2/Corticotropin-releasing factor-binding protein (Homo sapiens, UniProt P24387+Q13324); assay: Dose Response confirmation of uHTS hits for small molecule antagonists of the CRF-binding protein and CRF-R2 receptor complex.; format: functional; settings: read-out: IC50_Mean
T1 sequence (Q13324 whole entry): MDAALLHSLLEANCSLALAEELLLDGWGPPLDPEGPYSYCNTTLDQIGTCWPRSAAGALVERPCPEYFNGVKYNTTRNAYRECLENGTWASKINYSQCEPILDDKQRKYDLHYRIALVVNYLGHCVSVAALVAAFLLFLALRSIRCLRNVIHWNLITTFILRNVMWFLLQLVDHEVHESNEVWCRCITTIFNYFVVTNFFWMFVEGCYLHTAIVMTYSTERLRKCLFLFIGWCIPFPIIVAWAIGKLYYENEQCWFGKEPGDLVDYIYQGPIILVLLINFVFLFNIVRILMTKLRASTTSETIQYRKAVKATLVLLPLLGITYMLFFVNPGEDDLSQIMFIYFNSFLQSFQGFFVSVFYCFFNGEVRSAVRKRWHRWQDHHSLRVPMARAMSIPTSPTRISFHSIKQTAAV
T1 sequence (P24387 whole entry): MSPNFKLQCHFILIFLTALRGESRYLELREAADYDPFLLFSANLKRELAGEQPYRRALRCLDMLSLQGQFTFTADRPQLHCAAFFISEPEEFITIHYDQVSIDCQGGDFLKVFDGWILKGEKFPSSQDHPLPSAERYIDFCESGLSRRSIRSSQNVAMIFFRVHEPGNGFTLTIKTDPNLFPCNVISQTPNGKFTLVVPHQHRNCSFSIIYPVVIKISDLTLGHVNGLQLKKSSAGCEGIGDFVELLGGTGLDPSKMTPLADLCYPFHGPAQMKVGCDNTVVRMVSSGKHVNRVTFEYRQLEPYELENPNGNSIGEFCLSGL

[2] = biological target: T1, Corticotropin-releasing factor receptor 2/Corticotropin-releasing factor-binding protein; assay: activators of CRF receptor 2 with binding protein – uHTS hits, confirmation (AID 602473); format: functional; settings: read-out: EC50_Mean
[3] = viability of uninfected HEp-2 cells – cell-based, HTS, cytotoxicity control for RSV inhibitor project, dose response (AID 2410); format: functional; settings: human respiratory syncytial virus
Cytochrome P450 2C19 = Cytochrome P450 2C19 (Homo sapiens, UniProt P33261); assay: Cytochrome panel assay with activity outcomes. Panel member name: p450-cyp2c19 Compounds with AC50 equal or less than 10 uM are considered active; format: functional; settings: read-out: AC50
Chain of Cytochrome P450 2C19 (P33261 whole entry): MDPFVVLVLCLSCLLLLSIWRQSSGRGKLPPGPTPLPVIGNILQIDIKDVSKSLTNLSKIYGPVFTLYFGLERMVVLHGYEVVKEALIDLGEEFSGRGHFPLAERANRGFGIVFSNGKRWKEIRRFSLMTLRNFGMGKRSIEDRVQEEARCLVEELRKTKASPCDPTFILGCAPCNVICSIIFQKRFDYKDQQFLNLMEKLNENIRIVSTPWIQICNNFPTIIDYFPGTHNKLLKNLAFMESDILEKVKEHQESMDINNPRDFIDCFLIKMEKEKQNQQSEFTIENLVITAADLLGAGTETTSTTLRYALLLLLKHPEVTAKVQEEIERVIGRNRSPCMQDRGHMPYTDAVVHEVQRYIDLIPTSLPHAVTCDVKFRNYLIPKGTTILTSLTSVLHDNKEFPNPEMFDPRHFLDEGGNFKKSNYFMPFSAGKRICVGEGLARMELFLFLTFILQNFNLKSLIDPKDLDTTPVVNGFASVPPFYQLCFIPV

Cytochrome P450 1A2 = biological target: T2, Cytochrome P450 1A2 (Homo sapiens, UniProt P05177);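 note: PubChem cytochrome P450 panel assay, CYP1A2 panel member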
T2 sequence (P05177 whole entry): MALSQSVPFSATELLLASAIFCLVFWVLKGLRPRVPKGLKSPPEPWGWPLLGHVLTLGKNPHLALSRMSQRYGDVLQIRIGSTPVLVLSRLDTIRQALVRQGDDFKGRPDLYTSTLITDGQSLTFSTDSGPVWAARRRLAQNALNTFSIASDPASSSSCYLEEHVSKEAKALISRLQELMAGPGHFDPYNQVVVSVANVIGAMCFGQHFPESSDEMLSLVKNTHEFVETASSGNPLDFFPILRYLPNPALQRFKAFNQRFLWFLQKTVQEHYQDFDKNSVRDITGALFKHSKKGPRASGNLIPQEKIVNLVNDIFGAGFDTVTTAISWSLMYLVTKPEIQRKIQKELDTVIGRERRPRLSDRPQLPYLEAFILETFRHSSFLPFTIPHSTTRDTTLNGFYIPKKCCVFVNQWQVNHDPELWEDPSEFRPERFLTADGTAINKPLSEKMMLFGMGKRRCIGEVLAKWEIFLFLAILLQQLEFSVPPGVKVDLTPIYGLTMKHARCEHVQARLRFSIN

[4] = fluconazole-exposed Candida albicans growth modulators – fluorescence, retest, confirmation (AID 2467); format: functional, cell-based
[5] = NIH-3T3 fibroblast cytotoxicity, dose response, cytotoxicity control, cell-based, fluorescence, Alamar Blue, secondary assay (AID 2327); format: functional;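 note: NIH-3T3 mouse fibroblasts cultured with fluconazole at 8 µg/mL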
[6] = biological target: T3, Rac GTPase-activating protein 1 (Homo sapiens, UniProt Q9H0H5); assay: blockers of MgcRacGAP-driven Rac1 GTP hydrolysis – biochemical, ADP Hunter fluorescence, primary and confirmatory, confirmation (AID 624330); format: functional
T3 sequence (Q9H0H5 whole entry): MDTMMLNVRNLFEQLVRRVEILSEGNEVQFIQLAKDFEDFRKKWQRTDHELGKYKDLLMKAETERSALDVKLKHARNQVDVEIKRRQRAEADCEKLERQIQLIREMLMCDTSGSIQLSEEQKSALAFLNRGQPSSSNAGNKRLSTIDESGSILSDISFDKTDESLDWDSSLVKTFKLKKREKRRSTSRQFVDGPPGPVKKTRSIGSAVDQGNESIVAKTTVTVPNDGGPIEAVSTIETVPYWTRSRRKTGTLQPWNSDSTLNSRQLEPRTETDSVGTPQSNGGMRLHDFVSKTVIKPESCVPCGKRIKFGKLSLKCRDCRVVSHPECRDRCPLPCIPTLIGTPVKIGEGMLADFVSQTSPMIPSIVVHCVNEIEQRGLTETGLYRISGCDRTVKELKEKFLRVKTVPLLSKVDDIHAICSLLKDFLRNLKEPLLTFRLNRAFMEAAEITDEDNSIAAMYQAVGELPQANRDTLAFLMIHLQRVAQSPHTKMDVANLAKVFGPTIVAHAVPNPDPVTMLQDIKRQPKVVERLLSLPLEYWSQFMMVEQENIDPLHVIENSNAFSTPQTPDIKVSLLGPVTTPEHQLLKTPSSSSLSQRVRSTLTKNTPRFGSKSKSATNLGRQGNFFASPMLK

Cytochrome P450 2D6 = Cytochrome P450 2D6 (Homo sapiens, UniProt P10635);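 note: CYP2D6 member of a cytochrome P450 panel assay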
Chain of Cytochrome P450 2D6 (P10635 whole entry): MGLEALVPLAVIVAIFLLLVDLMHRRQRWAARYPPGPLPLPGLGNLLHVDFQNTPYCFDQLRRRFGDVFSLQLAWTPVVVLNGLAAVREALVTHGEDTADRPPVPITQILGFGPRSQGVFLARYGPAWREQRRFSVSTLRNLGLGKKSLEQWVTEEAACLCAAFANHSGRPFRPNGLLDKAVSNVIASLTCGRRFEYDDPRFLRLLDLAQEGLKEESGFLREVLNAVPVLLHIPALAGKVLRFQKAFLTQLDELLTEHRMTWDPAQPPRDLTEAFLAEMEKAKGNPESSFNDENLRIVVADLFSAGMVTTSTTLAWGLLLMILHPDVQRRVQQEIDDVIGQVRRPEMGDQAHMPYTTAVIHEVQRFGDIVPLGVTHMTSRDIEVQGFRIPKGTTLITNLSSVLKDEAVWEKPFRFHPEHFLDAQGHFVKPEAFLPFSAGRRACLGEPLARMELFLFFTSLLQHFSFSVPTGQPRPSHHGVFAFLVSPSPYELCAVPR

Cytochrome P450 2C9 = Cytochrome P450 2C9 (Homo sapiens, UniProt P11712)
Chain of Cytochrome P450 2C9 (P11712 whole entry): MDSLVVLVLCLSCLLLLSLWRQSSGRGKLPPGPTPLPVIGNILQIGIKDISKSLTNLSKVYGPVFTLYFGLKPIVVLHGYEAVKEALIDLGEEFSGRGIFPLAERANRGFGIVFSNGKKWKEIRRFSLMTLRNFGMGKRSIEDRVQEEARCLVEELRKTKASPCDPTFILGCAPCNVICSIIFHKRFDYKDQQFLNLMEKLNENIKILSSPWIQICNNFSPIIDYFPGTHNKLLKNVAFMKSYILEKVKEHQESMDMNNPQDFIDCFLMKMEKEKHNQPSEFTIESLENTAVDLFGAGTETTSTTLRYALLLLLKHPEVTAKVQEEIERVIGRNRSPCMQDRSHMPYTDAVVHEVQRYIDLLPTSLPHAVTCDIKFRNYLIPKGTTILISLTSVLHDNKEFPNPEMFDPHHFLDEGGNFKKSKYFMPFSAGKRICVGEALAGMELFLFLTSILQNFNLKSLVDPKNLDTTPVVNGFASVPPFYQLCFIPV

Cytochrome P450 3A4 = Cytochrome P450 3A4 (Homo sapiens, UniProt P08684);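 note: CYP3A4 tested as one member of a cytochrome P450 panel screen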
Chain of Cytochrome P450 3A4 (P08684 whole entry): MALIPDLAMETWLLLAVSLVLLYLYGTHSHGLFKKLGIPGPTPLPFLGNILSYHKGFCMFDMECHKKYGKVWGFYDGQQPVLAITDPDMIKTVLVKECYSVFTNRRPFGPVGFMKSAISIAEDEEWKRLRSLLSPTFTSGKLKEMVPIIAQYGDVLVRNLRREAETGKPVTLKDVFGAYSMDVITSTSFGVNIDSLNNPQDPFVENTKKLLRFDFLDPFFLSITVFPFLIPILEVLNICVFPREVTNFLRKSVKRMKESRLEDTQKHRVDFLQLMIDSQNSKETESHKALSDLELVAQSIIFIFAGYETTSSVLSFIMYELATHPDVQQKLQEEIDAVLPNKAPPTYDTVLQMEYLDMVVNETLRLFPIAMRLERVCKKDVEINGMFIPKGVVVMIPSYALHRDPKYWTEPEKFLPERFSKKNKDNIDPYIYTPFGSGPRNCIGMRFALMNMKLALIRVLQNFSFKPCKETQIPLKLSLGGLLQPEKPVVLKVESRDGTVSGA

Which results are given for `CCNc1nc(NCC)n2c(SCc3ccc(F)cc3)nnc2n1`?
IC50 [1]: > 47.1 µM (inactive); EC50 [2]: > 53 µM (inactive)

Which CC50 [3] does the source give for `Cc1ccc(-n2nc3c(=O)n(CCCC(=O)NCc4ccccc4C)nc(C)c3c2C)cc1` here?
Its CC50 is > 50 µM (active).

For `COC(=O)c1sccc1NC(=O)c1cc(-c2ccc(C)cc2)nc2ccccc12`, which AC50 (Cytochrome P450 2C19) is on record?
The AC50 was 10 µM (inconclusive).

And the AC50 (Cytochrome P450 1A2)?
The AC50 was 14.1 µM (inconclusive).

With `COC(=O)CCC(=O)Nc1cccc2ccccc12` as the compound, how does the AC50 (Cytochrome P450 2C19) read?
The AC50 was 20 µM (inconclusive).

Which AC50 (Cytochrome P450 2C19) does the source give for `N#Cc1ccc(Oc2nc(C(N)=O)cc(-c3ccccc3)n2)cc1` here?
Its AC50 is 25.1 µM (inconclusive).

For `CCc1cccc(NC(=O)c2cnn(-c3ccccc3)c2C)c1`, which CC50 [3] is on record?
The CC50 was 29.9 µM (active).

Which EC50 [4] does the source give for `CCCCn1c(CN2CCN(C(=O)OCC)CC2)nc2c1c(=O)n(C)c(=O)n2C` here?
The EC50 was > 38 µM (not active).

What about the EC50 [5] of the same compound?
Its EC50 is > 150 µM (inactive).

For `O=C1CC(c2ccccc2)CC(O)=C1/C=N/c1ccc(O)cc1` (stereo unspecified), which IC50 [6] is on record?
The IC50 was 26 µM (active).

For `Cc1ccc(S(=O)(=O)N2CCC(=O)N(C(COCc3cccc(C)c3)Cc3ccccc3)CC2)cc1` (stereo unspecified), which CC50 [3] is on record?
Its CC50 is 28.7 µM (active).

For `COc1ccc(C(=O)N/N=C/c2ccc(N3CCOCC3)s2)cc1OC`, which IC50 [6] is on record?
Its IC50 is 110 µM (active).

For `COc1ccc(S(=O)(=O)Nc2nc3ccccc3nc2NCC2CCCO2)cc1` (stereo unspecified), which IC50 [1] is on record?
Its IC50 is > 47.1 µM (inactive).

And the EC50 [2]?
Its EC50 is > 53 µM (inactive).

Which IC50 [1] does the source give for `O=S(=O)(Nc1ccc2c(c1)CCC2)c1cccs1` here?
The IC50 was > 47.1 µM (inactive).

What about the EC50 [2] of the same compound?
The EC50 was > 53 µM (inactive).

What does the source list for `COc1cc(OC)cc(C(=O)NNC(=O)Cc2ccc(OC)c(S(=O)(=O)N3CCOCC3)c2)c1`?
EC50 [4]: > 38 µM (not active); EC50 [5]: > 150 µM (inconclusive)

For `c1cc(-c2sc(-c3ccncc3)c(-c3ccncc3)c2-c2ccncc2)ccn1`, which AC50 (Cytochrome P450 1A2) is on record?
The AC50 was 3.16 µM (inconclusive).

And the AC50 (Cytochrome P450 2D6)?
Its AC50 is 3.16 µM (inconclusive).

Which results are given for `Cc1nc2ccc(NC(=O)COc3ccccc3)cc2s1`?
EC50 [4]: > 38 µM (not active); EC50 [5]: > 150 µM (inactive)

Which IC50 [6] does the source give for `COc1ccccc1OCC#CCn1ccnc1` here?
The IC50 was 160 µM (active).

Which IC50 [1] does the source give for `COC(=O)c1sccc1NS(=O)(=O)c1ccccc1` here?
The IC50 was > 47.1 µM (inactive).

And the EC50 [2]?
Its EC50 is > 53 µM (inactive).

What does the source list for `Cc1ccccc1CN1CCN(CC(=O)NCCCN2CCN(c3ccc(F)cc3)CC2)C1=O`?
AC50 (Cytochrome P450 2C9): 12.6 µM (inconclusive); AC50 (Cytochrome P450 2C19): 11.2 µM (inconclusive); AC50 (Cytochrome P450 3A4): 25.1 µM (inconclusive)

With `CCOc1ccc(/C=N/NC(=O)C(C)N(c2ccc(OC)cc2)S(C)(=O)=O)cc1OCC` (stereo unspecified) as the compound, how does the IC50 [1] read?
The IC50 was > 47.1 µM (inactive).

And the EC50 [2]?
The EC50 was > 53 µM (inactive).

With `CCOC(=O)c1ccc(NC(=O)c2ccc(CO)c(C(=O)NC3CCN(C(=O)OCC)CC3)c2)cc1` as the compound, how does the EC50 [4] read?
The EC50 was > 38 µM (not active).

And the EC50 [5]?
Its EC50 is > 160 µM (inactive).

With `COc1ccccc1CNCCc1cccc(Cl)c1` as the compound, how does the IC50 [6] read?
The IC50 was 135 µM (active).

For `O=C1NC(Cc2c[nH]c3ccccc23)C(=O)N1Cc1cccc2ccccc12` (stereo unspecified), which IC50 [1] is on record?
The IC50 was > 47.1 µM (inactive).

And the EC50 [2]?
The EC50 was > 53 µM (inactive).
